{"source": "patent US11035008B2", "about": "“Biomarkers for cancer” (BERGENBIO ASA, priority 2015, dated 2021)", "key": {"totAxl": {"tested_on": "totAxl", "assay": "Total Axl in AML cell panel, long-term treatment, flow cytometry", "assay_type": "cell-based, human", "experimental": "(§1) Staining of Cells for Flow Cytometry, General Protocol: • Live cells were centrifuged at 300 G for 5 minutes, washed once with PBS and centrifuged again. Cells were then fixed in 4% PFA in PBS for 10 minutes at 37° C., and resuspended in PBS. Unless processed immediately, samples were at this point stored in PBS at 4° C. (up to three weeks) or at −80° C. (for long-term storage). If intracellular epitopes were stained, cells were permebealized in 90% MeOH for 30 minutes on ice. Unless processed immediately, samples were also be stored in 90% MeOH at −20° C. for up to two months. • Further staining procedure (permebealized or non-permebealized cells): • Cells were washed 1× in PBS and blocked in blocking buffer; either PBS+0.5% BSA or PBS+1:1000 Octagam (5 mg/ml) for 15 minutes at room temperature. Thereafter, cells were incubated with primary AB at the indicated dilutions in incubation buffer (IB, PBS+0.5% BSA) for 1 hour at room temperature. Cells were then washed 3× with IB and incubated with secondary AB (conjugated to a fluorescent flurophore) at 1:1000 dilution in IB for 30 minutes at room temperature. Finally, cells were washed 3× in IB and resuspended in PBS. Cells were analyzed immediately, or stored for up to 24 hours at 4° C. before analysis. • Analysis of cells was done on a BD LSR Fortessa or a BD C6 Accuri flow cytometer, and further processing was done using FlowJo v.7.6. • All incubation steps (but not storage) were done on a spinning wheel or gentle shaker.\n(§2) The diversity of AML cells and their responses was investigated using a panel of AML cell lines and assessing their responses after BGB324-treatment.\nLong-term treatment was done in complete medium, without starvation. The responders were treated with 0.05, 0.1 or 0.3 μM BGB324, whereas the non-responders were treated with only a single dose of 2.5 μM BGB324. The cells were fixed after 24, 48 or 72 hours, and the samples were stored in 90% MeOH at −20° C. until all samples were harvested, and stained for flow at the same time."}, "PHGDH": {"tested_on": "PHGDH", "assay": "Microarray analysis of xenograft material, PHGDH transcript", "assay_type": "in vivo, mice", "text": "PHGDH was included in the biomarker panel following microarray analysis of Mv4-11 and MOLM13 xenograft material after BGB324-treatment."}, "total Axl": {"tested_on": "total Axl", "assay": "Total Axl by flow cytometry in MOLM13 cells (Example 2)", "assay_type": "cell-based, human", "details": "MOLM13 starved, 3 μM, 40 minutes", "experimental": "as §1, with “Cells were then washed 3× with IB and incubated with secondary AB (conjugated to a fluorescent flurophore) at 1:1000 dilution in IB for 30 minutes at room temperature. Finally, cells were washed 3× in IB and resuspended in PBS.” left out, “shaker. […]” for “shaker.”"}, "pPLCγ1": {"tested_on": "pPLCγ1", "assay": "pPLCγ1 in AML cell panel, short term treatment, flow cytometry", "assay_type": "cell-based, human", "experimental": "as §1, §2\n(§3) When investigating phospho-markers, the cells were starved overnight in the appropriate growth medium containing 0.1% FBS, pre-treated with BGB324 at 0.5 and 1 μM for one hour, and stimulated with 10% FBS for 20 minutes (to induce phosphorylation, with BGB324 present). Cells were then fixed and stained for flow cytometric analyses."}, "pAkt (S473)": {"tested_on": "pAkt (S473)", "assay": "pAkt(S473) in AML cell panel, short term treatment, flow cytometry", "assay_type": "cell-based, human", "details": "1 hour", "experimental": "as §1, §2, §3"}, "[1]": {"tested_on": "MOLM13 systemic xenograft", "assay": "Leukemic (CD33/CD45-positive) cells in MOLM13 systemic xenograft model", "assay_type": "in vivo, mice", "details": "50 mg/kg for 4 days", "experimental": "Material from an in vivo MOLM13 systemic model was also evaluated by flow cytometry. Expression of the previously evaluated biomarkers was examined in cells isolated from bone marrows and spleens of animals with systemic AML disease (MOLM13, inoculated for 7 days prior to treatment) treated with BGB324 at 50 mg/kg for 4 days. The spleens analysed were from the same study that was analysed by microarray, as mentioned above. The bone marrows were from an identical study that was done at a later time point to get more material for flow analyses.\nCells harvested from spleens, blood and bone marrows of the animals were stained with anti CD33 and CD45 antibodies, to determine if systemic disease was established. CD33/CD45-positive cells were found in spleens (around 10-15%), bone marrows (35-40%) and in the blood (2-6%) of the animals, confirming that the disease was established."}, "pAxl(Y779)": {"tested_on": "pAxl(Y779)", "assay": "pAxl(Y779) by flow cytometry in MOLM13 cells (Example 2)", "assay_type": "cell-based, human", "experimental": "as §1\nMOLM13 cells were cultured in starvation medium (RPMI, 0.1% FBS) over night and treated with BGB324 at 3 μM for a total of 40 minutes. […] Cells were co-stained with pAxl(Y779) and tAxl (1H12) antibodies. […] When gating for Axl-expressing cells, we saw that the reduction of pAxl signal was only seen in Axl-positive cells, showing that the pAxl antibody appears to be Axl-specific (see FIG. 3).\npAxl was further assessed pAxl by, in the same experimental conditions, examining for phosphorylation of Akt (see above, and FIG. 2), comparing starvation with non-starved cells, and using MOLM13 wt, shAxl and shLuc (cells were co-stained with antibodies for both pAkt and pAxl). MOLM13shAxl were used as a negative control, to separate between background binding of the antibodies and the “real” pAxl-signal. In cells that were not starved, only a slight inhibition of pAxl after treatment was found (around 20% at 3 μM BGB324 dose)."}}, "note": "“Also recorded” adds a separate entry of the source.", "data": [{"smiles": "Nc1nc(Nc2ccc3c(c2)CC[C@@H](N2CCCC2)CC3)nn1-c1cc2c(nn1)-c1ccccc1CCC2", "note": "[BGB324, 1-(6,7-dihydro-5H-benzo[6,7]cyclohepta[1,2-c]pyridazin-3-yl)-N3-((7-(S)-pyrrolidin-1-yl)-6,7,8,9-tetrahydro-5H-benzo[7]annulene-2-yl)-1H-1,2,4-triazole-3,5-diamine]", "values": [{"measurement": "Axl expression", "setting": "totAxl; Kasumi, 2.5 μM, 24-72 hours", "value": "goes significantly up"}, {"measurement": "Axl expression", "setting": "totAxl; MOLM13, 0.3 μM, 24 hours", "value": "slight and significant reduction of Axl"}, {"measurement": "Axl expression", "setting": "totAxl; Mv4-11, 0.3 μM, 24 hours and 72 hours", "value": "slight and significant reduction of Axl"}, {"measurement": "Axl expression", "setting": "totAxl; OCI-AML5, 2.5 μM, 24-72 hours", "value": "goes significantly up"}, {"measurement": "PHGDH transcript (microarray)", "setting": "PHGDH; MOLM13 systemic xenograft model, spleen and bone marrow", "value": "significantly downregulated; also recorded: significantly reduced"}, {"measurement": "PHGDH transcript (microarray)", "setting": "PHGDH; Mv4-11 subcutaneous xenograft, 14 days of treatment", "value": "one of the most significantly downregulated transcripts; also recorded: significantly downregulated"}, {"measurement": "PHGDH transcript alteration after treatment (microarray)", "setting": "PHGDH; both Mv4-11 subcutaneous and MOLM13 systemic xenograft models", "value": "more than 1.5 fold"}, {"measurement": "Total Axl expression", "setting": "total Axl", "value": "did not change"}, {"measurement": "pPLCγ", "setting": "pPLCγ1; Kasumi, 1 hour", "value": "No response in PLCγ"}, {"measurement": "pPLCγ", "setting": "pPLCγ1; MOLM13, all treatment doses, 1 hour", "value": "significantly reduced"}, {"measurement": "pPLCγ", "setting": "pPLCγ1; Mv4-11, all treatment doses, 1 hour", "value": "significantly reduced"}, {"measurement": "pPLCγ", "setting": "pPLCγ1; OCI-M1, 1 hour", "value": "No response in PLCγ"}, {"measurement": "Akt phosphorylation", "setting": "pAkt (S473); Kasumi, 0.5 and 1 μM", "value": "close to no effect"}, {"measurement": "Akt phosphorylation", "setting": "pAkt (S473); MOLM13, 0.5 and 1 μM, 10% FBS stimulation", "value": "inhibits Akt phosphorylation"}, {"measurement": "Akt phosphorylation", "setting": "pAkt (S473); Mv4-11, 0.5 and 1 μM, not significant at 0.5 μM", "value": "inhibits Akt phosphorylation"}, {"measurement": "pAkt", "setting": "pAkt (S473); OCI-M1, 1 μM", "value": "slight and significant inhibition of pAkt"}, {"measurement": "Akt phosphorylation", "setting": "pAkt (S473); OCI-M1, 0.5 and 1 μM", "value": "close to no effect"}, {"measurement": "percentage of leukemic cells vs. vehicle-treated mice", "setting": "[1]; blood", "value": "significantly higher percentage of leukemic cells"}, {"measurement": "percentage of leukemic cells vs. vehicle-treated mice", "setting": "[1]; bone marrows", "value": "no significant differences"}, {"measurement": "percentage of leukemic cells vs. vehicle-treated mice", "setting": "[1]; spleens", "value": "no significant differences"}, {"measurement": "inhibition at 3 µM", "setting": "pAxl(Y779); Homo sapiens, MOLM-13, MOLM13 not starved (wt, shLuc, shAxl same)", "value": "~20", "unit": "%"}, {"measurement": "inhibition of pAxl", "setting": "pAxl(Y779); MOLM13 shAxl, pre-starved, 3 μM", "value": "approximately 20%"}, {"measurement": "pAxl(Y779)", "setting": "pAxl(Y779); MOLM13 starved, 3 μM, 40 minutes", "value": "slight decrease in pAxl; also recorded: modest reduction of pAxl"}, {"measurement": "total reduction of pAxl", "setting": "pAxl(Y779); MOLM13 wt and shLuc, pre-starved, 3 μM", "value": 40, "unit": "%"}]}]}
